Publication PMC4076210, “Discovery of Novel AKT Inhibitors with Enhanced Anti-Tumor Effects in Combination with the MEK Inhibitor” (PLoS ONE, 2014)
Read-outs that look alike come from different tables or passages of the source.

Experiments:
[1] = target: T1, ASK1(h) (Homo sapiens, UniProt Q99683); test: Kinase panel; type: biochemical
T1 construct: purchased Millipore KinaseProfiler
T1 sequence (Q99683 1-1374): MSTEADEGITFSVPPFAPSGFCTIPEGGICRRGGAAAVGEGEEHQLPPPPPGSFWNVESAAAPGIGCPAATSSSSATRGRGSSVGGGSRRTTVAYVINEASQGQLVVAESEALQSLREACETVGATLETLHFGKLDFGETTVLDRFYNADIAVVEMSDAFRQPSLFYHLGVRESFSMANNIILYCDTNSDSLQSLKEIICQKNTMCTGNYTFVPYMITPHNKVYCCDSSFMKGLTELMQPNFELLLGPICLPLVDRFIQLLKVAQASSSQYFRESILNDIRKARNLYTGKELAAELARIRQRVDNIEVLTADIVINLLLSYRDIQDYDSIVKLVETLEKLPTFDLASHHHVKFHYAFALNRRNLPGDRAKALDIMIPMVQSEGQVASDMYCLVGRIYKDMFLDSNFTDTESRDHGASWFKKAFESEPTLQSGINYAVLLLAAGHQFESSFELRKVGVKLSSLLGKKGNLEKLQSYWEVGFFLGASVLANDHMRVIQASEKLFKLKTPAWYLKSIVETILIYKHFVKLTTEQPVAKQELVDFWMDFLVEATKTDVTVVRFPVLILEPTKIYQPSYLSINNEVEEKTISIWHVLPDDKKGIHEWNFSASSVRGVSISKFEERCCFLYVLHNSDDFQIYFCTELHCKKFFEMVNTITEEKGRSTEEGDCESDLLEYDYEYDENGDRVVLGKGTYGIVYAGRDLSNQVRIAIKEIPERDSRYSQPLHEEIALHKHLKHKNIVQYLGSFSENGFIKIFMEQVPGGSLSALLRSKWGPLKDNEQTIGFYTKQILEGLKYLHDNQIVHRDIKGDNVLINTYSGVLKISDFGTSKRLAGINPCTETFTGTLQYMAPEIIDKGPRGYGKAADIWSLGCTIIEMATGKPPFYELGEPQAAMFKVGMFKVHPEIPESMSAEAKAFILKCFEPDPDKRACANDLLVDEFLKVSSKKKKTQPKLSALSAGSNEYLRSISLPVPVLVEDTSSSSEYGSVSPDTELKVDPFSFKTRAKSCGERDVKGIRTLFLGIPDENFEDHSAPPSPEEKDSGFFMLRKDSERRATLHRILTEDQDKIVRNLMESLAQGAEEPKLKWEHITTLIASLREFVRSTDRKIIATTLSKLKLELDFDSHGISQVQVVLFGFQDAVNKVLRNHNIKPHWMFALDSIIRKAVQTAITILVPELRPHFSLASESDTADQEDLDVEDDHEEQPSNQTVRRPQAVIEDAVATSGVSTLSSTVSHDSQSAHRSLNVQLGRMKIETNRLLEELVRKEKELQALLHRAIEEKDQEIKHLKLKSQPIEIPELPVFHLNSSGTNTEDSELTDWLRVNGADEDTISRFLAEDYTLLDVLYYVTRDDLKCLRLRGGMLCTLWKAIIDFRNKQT

[2] = target: T2, cSRC(h) (Homo sapiens, UniProt P12931); test: Kinase panel; type: biochemical
T2 construct: purchased Millipore KinaseProfiler

[3] = target: T3, Yes(h) (Homo sapiens, UniProt P07947); test: Kinase panel; type: biochemical
T3 construct: purchased Millipore KinaseProfiler

[4] = test system: MLCK(h); test: Kinase panel; type: biochemical, human
[5] = target: T4, SRPK1(h) (Homo sapiens, UniProt Q96SB4); test: Kinase panel; type: biochemical
T4 construct: purchased Millipore KinaseProfiler

[6] = target: PKG1β (Homo sapiens, UniProt Q13976); test: Kinase IC50 assay; type: biochemical
[7] = target: T5, MST3(h) (Homo sapiens, UniProt Q9Y6E0); test: Kinase panel; type: biochemical
T5 construct: purchased Millipore KinaseProfiler

[8] = target: T6, CaMKIIδ(h) (Homo sapiens, UniProt Q13557); test: Kinase panel; type: biochemical
T6 construct: purchased Millipore KinaseProfiler

[9] = target: T7, ALK(h) (Homo sapiens, UniProt Q9UM73); test: Kinase panel; type: biochemical
T7 construct: purchased Millipore KinaseProfiler

[10] = target: T8, Aurora-A(h) (Homo sapiens, UniProt O14965); test: Kinase panel; type: biochemical
T8 construct: purchased Millipore KinaseProfiler
T8 sequence (O14965 1-403): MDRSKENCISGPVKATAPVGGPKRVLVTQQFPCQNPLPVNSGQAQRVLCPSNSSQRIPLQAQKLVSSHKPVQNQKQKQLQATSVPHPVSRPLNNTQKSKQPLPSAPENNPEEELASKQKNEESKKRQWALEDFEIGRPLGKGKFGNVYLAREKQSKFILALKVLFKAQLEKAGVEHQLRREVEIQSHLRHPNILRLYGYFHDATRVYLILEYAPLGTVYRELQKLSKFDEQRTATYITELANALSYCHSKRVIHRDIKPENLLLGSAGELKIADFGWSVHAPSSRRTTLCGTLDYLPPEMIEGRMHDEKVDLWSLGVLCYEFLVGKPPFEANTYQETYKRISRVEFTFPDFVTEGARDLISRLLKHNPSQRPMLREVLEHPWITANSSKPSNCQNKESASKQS

[11] = target: T9, CK1γ3(h) (Homo sapiens, UniProt Q9Y6M4); test: Kinase panel; type: biochemical
T9 construct: purchased Millipore KinaseProfiler

[12] = target: T10, Tie2(Y897S)(h) (Homo sapiens, UniProt Q02763, Y897S); test: Kinase panel; type: biochemical
T10 construct: purchased Millipore KinaseProfiler

T7 sequence (Q9UM73 19-1620): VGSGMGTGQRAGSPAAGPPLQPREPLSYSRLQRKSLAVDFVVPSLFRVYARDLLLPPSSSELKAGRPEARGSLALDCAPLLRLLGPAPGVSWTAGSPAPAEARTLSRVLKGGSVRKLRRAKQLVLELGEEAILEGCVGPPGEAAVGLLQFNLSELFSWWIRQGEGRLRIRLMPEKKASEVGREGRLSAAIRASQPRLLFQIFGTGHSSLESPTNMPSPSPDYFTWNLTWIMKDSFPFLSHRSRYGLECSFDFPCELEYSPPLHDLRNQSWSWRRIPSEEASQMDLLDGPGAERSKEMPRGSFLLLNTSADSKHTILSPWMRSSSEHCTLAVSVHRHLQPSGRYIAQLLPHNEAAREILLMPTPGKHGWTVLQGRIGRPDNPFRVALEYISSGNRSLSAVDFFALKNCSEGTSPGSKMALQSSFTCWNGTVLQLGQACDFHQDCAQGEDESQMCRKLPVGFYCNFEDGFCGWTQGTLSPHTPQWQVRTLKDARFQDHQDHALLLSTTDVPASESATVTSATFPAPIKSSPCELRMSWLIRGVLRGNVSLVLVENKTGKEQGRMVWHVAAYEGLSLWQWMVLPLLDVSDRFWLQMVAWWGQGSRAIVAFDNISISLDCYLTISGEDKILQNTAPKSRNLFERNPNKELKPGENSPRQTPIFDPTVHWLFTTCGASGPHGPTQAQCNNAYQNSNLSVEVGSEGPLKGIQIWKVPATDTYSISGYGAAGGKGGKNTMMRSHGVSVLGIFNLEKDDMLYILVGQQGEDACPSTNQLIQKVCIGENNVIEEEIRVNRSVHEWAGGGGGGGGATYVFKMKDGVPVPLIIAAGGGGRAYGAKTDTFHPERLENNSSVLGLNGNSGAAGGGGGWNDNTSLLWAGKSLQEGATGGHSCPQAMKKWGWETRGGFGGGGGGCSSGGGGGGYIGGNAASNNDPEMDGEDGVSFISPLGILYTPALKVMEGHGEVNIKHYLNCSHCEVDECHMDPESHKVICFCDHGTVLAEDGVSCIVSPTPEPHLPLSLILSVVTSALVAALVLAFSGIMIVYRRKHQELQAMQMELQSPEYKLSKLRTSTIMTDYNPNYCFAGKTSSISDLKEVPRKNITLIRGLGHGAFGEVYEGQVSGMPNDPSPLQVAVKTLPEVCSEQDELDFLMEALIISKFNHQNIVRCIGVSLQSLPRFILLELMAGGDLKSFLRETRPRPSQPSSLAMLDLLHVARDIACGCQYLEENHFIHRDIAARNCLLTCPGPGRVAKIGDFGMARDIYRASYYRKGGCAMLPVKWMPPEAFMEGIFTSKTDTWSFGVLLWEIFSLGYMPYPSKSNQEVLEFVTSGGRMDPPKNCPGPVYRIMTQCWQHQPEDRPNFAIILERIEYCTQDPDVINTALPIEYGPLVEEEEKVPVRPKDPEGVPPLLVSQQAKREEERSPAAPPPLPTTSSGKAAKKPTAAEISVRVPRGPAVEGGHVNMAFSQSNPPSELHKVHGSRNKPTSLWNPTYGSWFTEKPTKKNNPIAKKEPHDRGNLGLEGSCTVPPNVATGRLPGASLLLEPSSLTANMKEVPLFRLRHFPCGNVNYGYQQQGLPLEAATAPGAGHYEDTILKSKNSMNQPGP
T6 sequence (Q13557 whole entry): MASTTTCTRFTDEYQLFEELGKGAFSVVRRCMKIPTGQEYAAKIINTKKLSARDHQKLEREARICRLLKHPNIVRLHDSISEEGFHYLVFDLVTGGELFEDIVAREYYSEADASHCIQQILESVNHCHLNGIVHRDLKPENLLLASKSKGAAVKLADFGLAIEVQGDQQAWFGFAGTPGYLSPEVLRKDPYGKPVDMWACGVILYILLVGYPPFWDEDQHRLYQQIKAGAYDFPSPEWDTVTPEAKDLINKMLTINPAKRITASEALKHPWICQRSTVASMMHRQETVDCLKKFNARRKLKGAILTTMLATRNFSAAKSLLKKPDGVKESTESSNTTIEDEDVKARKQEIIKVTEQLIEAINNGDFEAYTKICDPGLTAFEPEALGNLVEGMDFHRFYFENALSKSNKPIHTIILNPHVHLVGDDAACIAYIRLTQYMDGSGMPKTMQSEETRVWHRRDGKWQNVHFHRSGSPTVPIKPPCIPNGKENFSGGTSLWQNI
T9 sequence (Q9Y6M4 whole entry): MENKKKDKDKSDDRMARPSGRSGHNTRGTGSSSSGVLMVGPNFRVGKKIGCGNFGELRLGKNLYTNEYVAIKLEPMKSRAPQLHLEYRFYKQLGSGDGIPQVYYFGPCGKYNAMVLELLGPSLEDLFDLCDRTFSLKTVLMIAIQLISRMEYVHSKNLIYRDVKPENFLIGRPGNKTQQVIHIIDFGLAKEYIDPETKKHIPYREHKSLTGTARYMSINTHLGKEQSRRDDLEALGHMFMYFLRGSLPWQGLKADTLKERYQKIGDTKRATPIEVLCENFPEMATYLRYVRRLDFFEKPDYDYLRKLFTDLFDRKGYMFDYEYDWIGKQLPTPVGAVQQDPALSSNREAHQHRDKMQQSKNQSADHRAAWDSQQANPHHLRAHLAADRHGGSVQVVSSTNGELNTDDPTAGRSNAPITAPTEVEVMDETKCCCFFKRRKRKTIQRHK
T4 sequence (Q96SB4 whole entry): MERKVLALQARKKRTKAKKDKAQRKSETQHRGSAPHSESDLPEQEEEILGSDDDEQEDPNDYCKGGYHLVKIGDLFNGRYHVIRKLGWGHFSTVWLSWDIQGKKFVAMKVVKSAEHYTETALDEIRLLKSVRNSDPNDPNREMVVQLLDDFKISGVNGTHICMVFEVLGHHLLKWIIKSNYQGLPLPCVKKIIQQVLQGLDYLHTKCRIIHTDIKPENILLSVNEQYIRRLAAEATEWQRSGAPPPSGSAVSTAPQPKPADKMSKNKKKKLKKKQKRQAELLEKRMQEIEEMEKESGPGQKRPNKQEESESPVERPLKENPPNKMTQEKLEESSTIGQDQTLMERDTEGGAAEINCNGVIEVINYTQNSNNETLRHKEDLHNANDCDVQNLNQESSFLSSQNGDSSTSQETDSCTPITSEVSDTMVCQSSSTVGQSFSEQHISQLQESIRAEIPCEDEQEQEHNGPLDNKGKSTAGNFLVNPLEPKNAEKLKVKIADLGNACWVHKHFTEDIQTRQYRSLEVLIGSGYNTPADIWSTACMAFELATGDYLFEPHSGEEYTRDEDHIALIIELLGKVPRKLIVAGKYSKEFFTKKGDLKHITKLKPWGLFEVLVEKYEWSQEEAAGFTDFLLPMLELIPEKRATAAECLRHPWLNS
T3 sequence (P07947 whole entry): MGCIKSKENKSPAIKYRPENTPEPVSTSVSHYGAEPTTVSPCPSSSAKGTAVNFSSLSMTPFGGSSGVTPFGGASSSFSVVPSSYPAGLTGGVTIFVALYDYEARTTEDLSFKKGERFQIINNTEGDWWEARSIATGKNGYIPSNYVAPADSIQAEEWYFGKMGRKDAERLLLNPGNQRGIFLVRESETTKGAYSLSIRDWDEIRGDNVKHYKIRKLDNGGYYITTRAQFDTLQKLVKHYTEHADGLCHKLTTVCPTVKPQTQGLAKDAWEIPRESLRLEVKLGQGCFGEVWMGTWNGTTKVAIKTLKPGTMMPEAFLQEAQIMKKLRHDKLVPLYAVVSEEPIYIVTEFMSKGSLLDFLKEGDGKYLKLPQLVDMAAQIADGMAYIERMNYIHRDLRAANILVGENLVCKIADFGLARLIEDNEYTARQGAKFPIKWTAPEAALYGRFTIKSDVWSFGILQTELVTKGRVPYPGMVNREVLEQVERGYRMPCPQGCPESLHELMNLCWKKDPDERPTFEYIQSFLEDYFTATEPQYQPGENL
T2 sequence (P12931 whole entry): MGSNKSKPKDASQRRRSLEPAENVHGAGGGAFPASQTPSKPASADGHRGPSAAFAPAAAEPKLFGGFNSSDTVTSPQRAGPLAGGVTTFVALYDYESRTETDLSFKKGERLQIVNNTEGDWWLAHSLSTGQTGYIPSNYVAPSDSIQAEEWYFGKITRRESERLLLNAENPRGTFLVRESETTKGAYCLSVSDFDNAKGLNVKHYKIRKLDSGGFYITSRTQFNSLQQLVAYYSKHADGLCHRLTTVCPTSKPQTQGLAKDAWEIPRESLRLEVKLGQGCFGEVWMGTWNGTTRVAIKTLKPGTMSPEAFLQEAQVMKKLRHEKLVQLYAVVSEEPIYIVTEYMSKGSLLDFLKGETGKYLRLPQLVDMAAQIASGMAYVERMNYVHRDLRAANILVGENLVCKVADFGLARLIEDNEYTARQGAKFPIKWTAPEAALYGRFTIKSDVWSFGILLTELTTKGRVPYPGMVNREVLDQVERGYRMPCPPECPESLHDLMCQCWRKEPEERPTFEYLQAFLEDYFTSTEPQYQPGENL
T5 sequence (Q9Y6E0 whole entry): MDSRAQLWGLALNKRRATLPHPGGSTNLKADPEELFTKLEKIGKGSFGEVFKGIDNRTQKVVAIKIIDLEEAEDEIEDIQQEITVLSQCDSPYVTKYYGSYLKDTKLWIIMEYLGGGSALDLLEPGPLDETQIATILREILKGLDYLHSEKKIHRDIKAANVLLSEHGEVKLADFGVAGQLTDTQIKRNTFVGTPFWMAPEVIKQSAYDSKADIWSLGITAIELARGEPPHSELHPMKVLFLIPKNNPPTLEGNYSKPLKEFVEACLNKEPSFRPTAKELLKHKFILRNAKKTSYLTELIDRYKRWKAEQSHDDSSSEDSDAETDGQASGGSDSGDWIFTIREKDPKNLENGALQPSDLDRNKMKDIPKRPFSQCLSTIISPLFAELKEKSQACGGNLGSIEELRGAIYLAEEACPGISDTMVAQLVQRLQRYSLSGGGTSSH

Structure (SMILES): Cn1ncc(Cl)c1-c1cc(C(=O)N[C@H](CN)Cc2cccc(F)c2)sc1Cl [GSK2110183]
- inhibition at 0.5 µM [1]: -2%
- inhibition at 10 µM [1]: 3%
- inhibition at 0.5 µM [2]: -1%
- inhibition at 10 µM [2]: 22%
- inhibition at 0.5 µM [3]: 2%
- inhibition at 10 µM [3]: 38%
- % Inhibition ([4]; 0.5 µM): 4%
- % Inhibition ([4]; 10 µM): 60%
- inhibition at 0.5 µM [5]: -1%
- inhibition at 10 µM [5]: 18%
- IC50 [6]: 4 nM
- inhibition at 0.5 µM [7]: 14%
- inhibition at 10 µM [7]: 50%
- inhibition at 0.5 µM [8]: -20%
- inhibition at 10 µM [8]: 12%
- inhibition at 0.5 µM [9]: -22%
- inhibition at 10 µM [9]: 0%
- inhibition at 0.5 µM [10]: 0%
- inhibition at 10 µM [10]: 23%
- inhibition at 0.5 µM [11]: 7%
- inhibition at 10 µM [11]: 28%
- inhibition at 0.5 µM [12]: -5%
- inhibition at 10 µM [12]: -4%

Structure (SMILES): Cn1ncc(Cl)c1-c1cc(C(=O)N[C@H](CN)Cc2ccc(F)c(F)c2)oc1Cl [GSK2141795]
- inhibition at 0.5 µM ([1]; 0.5 µM, read-out: % Inhibition): -21%
- inhibition at 10 µM ([1]; 10 µM, read-out: % Inhibition): -14%
- inhibition at 0.5 µM ([2]; 0.5 µM, read-out: % Inhibition): -6%
- inhibition at 10 µM ([2]; 10 µM, read-out: % Inhibition): 49%
- inhibition at 0.5 µM ([3]; 0.5 µM, read-out: % Inhibition): -4%
- inhibition at 10 µM ([3]; 10 µM, read-out: % Inhibition): 83%
- % Inhibition ([4]; 0.5 µM): 5%
- % Inhibition ([4]; 10 µM): 58%
- inhibition at 0.5 µM ([5]; 0.5 µM, read-out: % Inhibition): 5%
- inhibition at 10 µM ([5]; 10 µM, read-out: % Inhibition): 17%
- IC50 [6]: < 1 nM
- inhibition at 0.5 µM ([7]; 0.5 µM, read-out: % Inhibition): 10%
- inhibition at 10 µM ([7]; 10 µM, read-out: % Inhibition): 63%
- inhibition at 0.5 µM ([8]; 0.5 µM, read-out: % Inhibition): 53%
- inhibition at 10 µM ([8]; 10 µM, read-out: % Inhibition): 94%
- inhibition at 0.5 µM ([9]; 0.5 µM, read-out: % Inhibition): -8%
- inhibition at 10 µM ([9]; 10 µM, read-out: % Inhibition): -4%
- inhibition at 0.5 µM ([10]; 0.5 µM, read-out: % Inhibition): -10%
- inhibition at 10 µM ([10]; 10 µM, read-out: % Inhibition): 31%
- inhibition at 0.5 µM ([11]; 0.5 µM, read-out: % Inhibition): -14%
- inhibition at 10 µM ([11]; 10 µM, read-out: % Inhibition): 51%
- inhibition at 0.5 µM ([12]; 0.5 µM, read-out: % Inhibition): -4%
- inhibition at 10 µM ([12]; 10 µM, read-out: % Inhibition): 2%
